Laboratory results taken from PMC6274350, “Design, Synthesis, and Cytotoxicity of 5-Fluoro-2-methyl-6-(4-aryl-piperazin-1-yl) Benzoxazoles” (Molecules, 2016).
pIC50: −log10 of the molar value.

How the values were obtained:
[1] = CellTiter-Glo luminescent cell viability (cytotoxicity) assay on hepatocytes; type: cell-based, human; conditions: human, Liver cells, hepatocytes (HepaRG), 24 h, vs DMSO vehicle
Protocol: (§1) The cytotoxicity of prepared benzoxazoles (7a–j) and intermediates (6a–j and 9) were measured by applying the CellTiter-Glo® luminescent cell proliferation assay (G755A, Promega, Madison, WI, USA). This method permits the determination of viable cells numbers in the culture based on quantitation of the ATP present, which denotes the presence of metabolically active cells. In vitro cytotoxicity analysis was overall performed following the protocol as described in “Guidance Document on Using in Vitro Data to Estimate in Vivo Starting Doses for Acute Toxicity Based on Recommendations” [18]. Human A-549 cells are human lung cancer epithelial cells, which were chosen as the tumor model, whereas the HepaRG™ cell line is a classic hepatic cell line that retains many characteristics of primary human hepatocytes. HepaRG™ cells are terminally differentiated.
(§2) Human cell cultures: Hepatocytes (HepaRG^TM cells) were obtained from Life Technologies, and were cultivated in William’s E Medium (Gibco, Life Technologies, Waltham, MA, USA) and supplemented with 1x GlutaMAX™ plus 1x HepaRG^TM General Purpose Medium Supplement in 25-cm^2 or 75-cm^2 flasks (TPP, Trasadingen, Switzerland) at 37 °C and 5% CO2. Lung cancer epithelial cells A-549 were propagated in Epilife Medium (Gibco, Life Technologies; MEPICF) and combined with CaCl2 and 1x-growth-supplement containing penicillin and streptomycin (Gibco, Life Technologies). For sub-culturing, cells were split at a ratio of 1:4 to 1:8. For cryopreservation, cells were frozen in 10% DMSO in liquid nitrogen.
(§3) Human cytotoxicity assay: Human hepatocytes or human lung carcinoma cells were seeded into sterile black clear-bottomed polystyrene Corning® CellBind® 96-well plates (Munich, Germany) at a density of 20,000 cells/well after calculating cell numbers from trypsinized samples in a classical Neubauer Improved hemocytometer (VWR, Munich, Germany). The cells were grown for 24 h at 37 °C in a 5% CO2 atmosphere in Epilife medium (keratinocytes) or William′s E medium (hepatocytes). After a 24-h recovery period, media were removed from the wells by aspiration. The cells were then immediately exposed to the respective test compounds or reference antibiotics (prepared in advance in 100 µL of the same media) for 24 h 37 °C with 5% CO2. The concentration tested ranged from 0.1 µM to 500 µM (0.1 µM, 1 µM, 10 µM, 50 µM, 100 µM, 250 µM, and 500 µM) and was formulated as a 100× concentrated stock each, resulting in a final constant DMSO concentration of 1% per 100-µL sample volume. Test series were each performed in triplicate, and additionally included a vehicle reference (DMSO only) plus another internal control for evaluating overall assay performance. Additionally, cells were visually examined under a light microscope for any morphological abnormalities relative to the untreated cells. Subsequently, cell viability, as an indicator of potential cytotoxicity, was measured by applying the CellTiter-Glo® luminescent cell proliferation assay (G755A, Promega, Madison, WI, USA). This method permits the determination of the number of viable cells in culture based on quantitation of the ATP present, which denotes the presence of metabolically active cells. To this end, 100 µL (equal to the volume of culture medium) of the kit-provided CellTiter-Glo® reagent (reconstituted by transferring the thawed CellTiter-Glo® buffer to the lyophilized enzyme and substrate mixture) was directly added to each well with a repetitive dispensing pipette. The contents were then mixed for 2 min at room temperature on an orbital minishaker (IKA® MS3 digital, Staufen, Germany) at 450 rpm to induce efficient cell lysis, and then further incubated for 10 min at room temperature for stabilization of the resultant luminescent signal. […]

[2] = test system: A-549 lung carcinoma cells; test: CellTiter-Glo luminescent cell viability (cytotoxicity) assay on lung cancer cells; type: cell-based, human; conditions: Homo sapiens, A549, Lung cancer cells (A-549), 24 h, vs DMSO vehicle
Protocol: as §1, §2, §3

[3] = Visible solubility / precipitation of test compounds in cell-culture media; type: physicochemical; conditions: for Precipitation in cell-culture media: 50 µM, no conclusion on cytotoxicity possible
Protocol: Since the majority of test compound solutions with concentrations above 50 µM precipitated in cell-culture media, we performed cytotoxicity assays for healthy and cancer cells at 50 µM.

[4] = test system: HepaRG cells (liver cells, hepatocytes); test: CellTiter-Glo luminescent cell viability (cytotoxicity) assay on hepatocytes; type: cell-based, human
Protocol: as §1, §2, §3

Work on COc1cccc(N2CCN(c3cc(O)c([N+](=O)[O-])cc3F)CC2)c1 [Compound 6i, 4-Fluoro-5-[4-(3-methoxy-phenyl)-piperazin-1-yl]-2-nitro-phenol] yielded a viability at 24 h, 0.1 µM [1] of 79%, a viability at 24 h, 1 µM [1] of 95% and a viability at 24 h, 10 µM [1] of 99%. The viability at 0.1 µM [2] was 95%, the viability at 1 µM [2] was 93% and the viability at 10 µM [2] was 96%. For the same compound, the viability at 50 µM [2] was 69%, the “Precipitation in cell-culture media” value [3] was “precipitation problem” and the melting point was 148 to 149 °C.
Compound O=[N+]([O-])c1cc(F)c(N2CCN(c3ccc(Cl)c(Cl)c3)CC2)cc1O [Compound 6j, 5-[4-(3,4-Dichloro-phenyl)-piperazin-1-yl]-4-fluoro-2-nitro-phenol] has a viability at 24 h, 0.1 µM [1] of 119%, a viability at 24 h, 1 µM [1] of 115% and a viability at 24 h, 10 µM [1] of 81%. For the same compound, the viability at 24 h, 50 µM [1] was 102%, the viability at 24 h, 100 µM [1] was 108% and the viability at 0.1 µM [2] was 98%. It also gave a viability at 1 µM [2] of 94%, a viability at 10 µM [2] of 65% and a viability at 50 µM [2] of 62%. The melting point was 211 to 213 °C.
With Cc1nc2cc(F)c(N3CCN(c4ccccc4)CC3)cc2o1 [Compound 7a, 5-Fluoro-2-methyl-6-(4-phenylpiperazin-1-yl)-benzo[d]oxazole] the viability at 24 h, 0.1 µM [1] was 101%, the viability at 24 h, 1 µM [1] was 97% and the viability at 24 h, 10 µM [1] was 94%. It also gave a viability at 0.1 µM [2] of 101%, a viability at 1 µM [2] of 96% and a viability at 10 µM [2] of 90%. For the same compound, the viability at 50 µM [2] was 60%, the “Precipitation in cell-culture media” value [3] was “precipitation problem” and the melting point was 153 to 154 °C.
Work on Cc1ccc(N2CCN(c3cc4oc(C)nc4cc3F)CC2)cc1 [Compound 7b, 5-Fluoro-2-methyl-6-(4-p-tolyl-piperazin-1-yl)-benzooxazole] yielded a viability at 24 h, 0.1 µM [1] of 105%, a viability at 24 h, 1 µM [1] of 99% and a viability at 24 h, 10 µM [1] of 91%. The viability at 24 h, 50 µM [1] was 63%, the viability at 24 h, 100 µM [1] was 60% and the “Toxicity to healthy cells versus lung cancer cells” value ([4]; 50 µM, HepaRG vs A-549) was “more toxic to healthy cells compared with lung cancer cells”. The viability at 0.1 µM [2] was 92%, the viability at 1 µM [2] was 94% and the viability at 10 µM [2] was 92%. The viability at 50 µM [2] was 87%, the viability at 100 µM [2] was 75% and the melting point was 168 to 170 °C.
In the case of Cc1nc2cc(F)c(N3CCN(c4ccc(O)cc4)CC3)cc2o1 [Compound 7c, 4-[4-(5-Fluoro-2-methyl-benzooxazol-6-yl)-piperazin-1-yl]-phenol], the viability at 24 h, 0.1 µM [1] was 98%, the viability at 24 h, 1 µM [1] was 107% and the viability at 24 h, 10 µM [1] was 101%. For the same compound, the viability at 24 h, 50 µM [1] was 93%, the viability at 0.1 µM [2] was 92% and the viability at 1 µM [2] was 97%. The viability at 10 µM [2] was 101%, the viability at 50 µM [2] was 90% and the viability at 100 µM [2] was 83%. The melting point was 188 to 191 °C.
Work on Cc1nc2cc(F)c(N3CCN(c4ccc(F)cc4)CC3)cc2o1 [Compound 7d, 5-Fluoro-6-[4-(4-fluoro-phenyl)-piperazin-1-yl]-2-methyl-benzooxazole] yielded a viability at 24 h, 0.1 µM [1] of 91%, a viability at 24 h, 1 µM [1] of 94% and a viability at 24 h, 10 µM [1] of 85%. For the same compound, the viability at 0.1 µM [2] was 98%, the viability at 1 µM [2] was 98% and the viability at 10 µM [2] was 87%. For the same compound, the viability at 50 µM [2] was 87%, the viability at 100 µM [2] was 82% and the “Precipitation in cell-culture media” value [3] was “precipitation problem”. For the same compound, the melting point was 148 to 150 °C.
Work on COc1ccc(N2CCN(c3cc4oc(C)nc4cc3F)CC2)cc1 [Compound 7e, 5-Fluoro-6-[4-(4-methoxy-phenyl)-piperazin-1-yl]-2-methyl-benzooxazole] yielded a viability at 24 h, 0.1 µM [1] of 107%, a viability at 24 h, 1 µM [1] of 108% and a viability at 24 h, 10 µM [1] of 91%. The viability at 24 h, 50 µM [1] was 71%, the viability at 0.1 µM [2] was 93% and the viability at 1 µM [2] was 92%. It also gave a viability at 10 µM [2] of 75%, a viability at 50 µM [2] of 74% and a viability at 100 µM [2] of 68%. For the same compound, the melting point was 156 to 157 °C.
Work on Cc1nc2cc(F)c(N3CCN(c4ccccc4O)CC3)cc2o1 [Compound 7f, 2-[4-(5-Fluoro-2-methyl-benzooxazol-6-yl)-piperazin-1-yl]-phenol] yielded a viability at 24 h, 0.1 µM [1] of 106%, a viability at 24 h, 1 µM [1] of 97% and a viability at 24 h, 10 µM [1] of 86%. It also gave a viability at 24 h, 50 µM [1] of 59%, a viability at 24 h, 100 µM [1] of 60% and a viability at 24 h, 250 µM ([1]; 250 µM) of 53%. It also gave a viability at 24 h, 500 µM ([1]; 500 µM) of 54%, a viability at 0.1 µM [2] of 103% and a viability at 1 µM [2] of 99%. It also gave a viability at 10 µM [2] of 91%, a viability at 50 µM [2] of 91% and a viability at 100 µM [2] of 95%. The viability at 250 µM ([2]; 250 µM) was 83%, the viability at 500 µM ([2]; 500 µM) was 63% and the “Solubility at test concentrations” value ([3]; cell-culture media, 0.1-500 µM) was “completely soluble at all concentrations”. For the same compound, the melting point was 172 to 173 °C.
In the case of Cc1nc2cc(F)c(N3CCN(c4ccccc4F)CC3)cc2o1 [Compound 7g, 5-Fluoro-6-(4-(2-fluorophenyl)-piperazin-1-yl)-2-methylbenzo[d]oxazole], the viability at 24 h, 0.1 µM [1] was 96%, the viability at 24 h, 1 µM [1] was 106% and the viability at 24 h, 10 µM [1] was 87%. For the same compound, the viability at 0.1 µM [2] was 96%, the viability at 1 µM [2] was 92% and the viability at 10 µM [2] was 92%. For the same compound, the viability at 50 µM [2] was 73%, the viability at 100 µM [2] was 63% and the “Precipitation in cell-culture media” value [3] was “precipitation problem”. It also gave a melting point of 157 to 158 °C.
In the case of Cc1nc2cc(F)c(N3CCN(c4cccc(O)c4)CC3)cc2o1 [Compound 7h, 3-[4-(5-Fluoro-2-methyl-benzooxazol-6-yl)-piperazin-1-yl]-phenol], the viability at 24 h, 0.1 µM [1] was 100%, the viability at 24 h, 1 µM [1] was 102% and the viability at 24 h, 10 µM [1] was 99%. For the same compound, the viability at 0.1 µM [2] was 100%, the viability at 1 µM [2] was 93% and the viability at 10 µM [2] was 97%. For the same compound, the viability at 50 µM [2] was 95%, the viability at 100 µM [2] was 90% and the “Precipitation in cell-culture media” value [3] was “precipitation problem”. For the same compound, the melting point was 211 to 213 °C.
For COc1cccc(N2CCN(c3cc4oc(C)nc4cc3F)CC2)c1 [Compound 7i, 5-Fluoro-6-[4-(3-methoxy-phenyl)-piperazin-1-yl]-2-methyl-benzooxazole], the viability at 24 h, 0.1 µM [1] was 100%, the viability at 24 h, 1 µM [1] was 102% and the viability at 24 h, 10 µM [1] was 91%. It also gave a viability at 0.1 µM [2] of 105%, a viability at 1 µM [2] of 102% and a viability at 10 µM [2] of 88%. For the same compound, the viability at 50 µM [2] was 76%, the viability at 100 µM [2] was 75% and the “Precipitation in cell-culture media” value [3] was “precipitation problem”. The melting point was 124 to 125 °C.
Compound COc1cccc2c1C(=O)c1c(O)c3c(c(O)c1C2=O)C[C@@](O)(C(=O)CO)C[C@@H]3O[C@H]1C[C@H](N)[C@H](O)[C@H](C)O1 [doxorubicine, reference compound] has a pIC50 ([4]; Homo sapiens, HepaRG cells, standard) of 5.29.
